Target: Macrophage colony-stimulating factor 1 receptor (Homo sapiens, UniProt P07333)
Test: Biochemical Assay: IC50 values were determined using the Z′-LYTE® activity assay, with ATP concentration used at Km app for the specific assay (500 μM ATP for CSF-1R (FMS) and 75 μM ATP for KDR (VEGFR2)).The Z′-LYTE® biochemical assay employs a fluorescence-based, coupled-enzyme format and is based on the differential sensitivity of phosphorylated and non-phosphorylated peptides to proteolytic …

Chain of Macrophage colony-stimulating factor 1 receptor (P07333 whole entry): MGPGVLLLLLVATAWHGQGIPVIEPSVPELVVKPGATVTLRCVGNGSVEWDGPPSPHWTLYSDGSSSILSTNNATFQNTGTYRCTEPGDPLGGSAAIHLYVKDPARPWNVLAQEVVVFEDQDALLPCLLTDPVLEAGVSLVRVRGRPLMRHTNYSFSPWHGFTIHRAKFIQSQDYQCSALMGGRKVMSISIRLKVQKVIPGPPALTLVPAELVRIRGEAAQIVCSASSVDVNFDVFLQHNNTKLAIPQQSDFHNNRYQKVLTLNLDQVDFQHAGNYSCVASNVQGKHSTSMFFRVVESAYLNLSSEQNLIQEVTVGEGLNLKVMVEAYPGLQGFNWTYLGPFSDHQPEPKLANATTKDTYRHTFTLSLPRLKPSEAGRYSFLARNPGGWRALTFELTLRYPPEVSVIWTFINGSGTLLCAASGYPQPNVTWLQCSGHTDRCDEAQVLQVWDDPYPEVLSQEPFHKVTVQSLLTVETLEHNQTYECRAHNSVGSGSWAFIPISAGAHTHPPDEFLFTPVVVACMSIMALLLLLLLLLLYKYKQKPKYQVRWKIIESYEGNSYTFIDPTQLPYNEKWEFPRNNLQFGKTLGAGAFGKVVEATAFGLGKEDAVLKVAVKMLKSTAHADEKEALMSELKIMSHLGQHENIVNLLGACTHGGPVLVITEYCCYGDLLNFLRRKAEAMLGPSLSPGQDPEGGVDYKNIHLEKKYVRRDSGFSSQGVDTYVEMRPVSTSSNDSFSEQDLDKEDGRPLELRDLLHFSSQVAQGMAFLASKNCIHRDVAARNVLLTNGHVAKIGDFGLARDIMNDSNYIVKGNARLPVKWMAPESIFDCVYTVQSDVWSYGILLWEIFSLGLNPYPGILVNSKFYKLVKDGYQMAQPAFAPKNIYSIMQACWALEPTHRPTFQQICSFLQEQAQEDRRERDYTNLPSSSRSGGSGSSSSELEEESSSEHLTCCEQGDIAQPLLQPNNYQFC

IC50, < 100 nM:
Cc1cc(OCCCN2C[C@@H](C)N[C@@H](C)C2)c2oc3cc(Oc4ccc(CCC(=O)NC5CCCC5)nc4)ccc3c(=O)c2c1
Cc1cc(OCCCN(C)C)c2oc3cc(Oc4cccc(NC(=O)Nc5ccccc5)c4)ccc3c(=O)c2c1
Cc1cc(OCCN(C)C)c2oc3cc(Oc4cccc(NC(=O)Nc5ccccc5)c4)ccc3c(=O)c2c1
Cc1cc(OCCCN(C)C)c2oc3cc(Oc4cccc(C(=O)Nc5ccccc5)c4)ccc3c(=O)c2c1
Cc1cc(OCCN(C)C)c2oc3cc(Oc4ccc(CCC(=O)N5CCCC5)nc4)ccc3c(=O)c2c1
Cc1cc(OCCN(C)C)c2oc3cc(Oc4cccc(C(=O)Nc5ccccc5)c4)ccc3c(=O)c2c1
